According to patent publication US10921327B2, “Probes for quantitative imaging of thiols in various environments” (Baylor College of Medicine, priority 2014, dated 2021):
Entries after “also recorded” stand apart in the source; their conditions may differ. Structures can show the parent of a compound that is named as a salt. Marks after values point to notes of the source that are not given here. One block for each compound: values may come before it.

Tests used:
[1] = Reactivity of probes against β-mercaptoethanol in DMSO; assay type: binding
Protocol: (§1) Compounds 3b-d were dissolved in DMSO (10 mM) and 1 eq of 2 M β-mercaptoethanol (BME) was added. Compounds 3a and TQ Green were dissolved in PBS buffer (10 mM, pH 7.4) with 1% DMSO. GSH solution was added to reach a final concentration of 80 mM with compound 3a at 10 μM and TQ Green at 16 μM, respectively. All solutions were then monitored continuously with UV-Vis and fluorimeter for 2 hours (Table 1).

Solubility = assay type: physicochemical; details: for solubility: PBS buffer, aqueous buffer
[2] = cited from earlier work
PANC-1 cells = assay: GSH level changes in PANC-1 cells upon DEM treatment (TQ Green live imaging); assay type: cell-based
Protocol: PANC-1 cells were treated with diethyl maleate (50 μM) for 24 hours and 2 hours to inhibit and stimulate GSH levels, respectively. All the cells were imaged 24 hours after starting the experiment. Results are statistical analyses of more than 25 cells. P values shown are based on unpaired student t-tests. Error bars represent standard deviations.
Applicants also treated PANC-1 cells with DEM for a very short time to stimulate the uptake of cysteine, thus increasing the GSH levels. After removal of DEM, the cells were further incubated under normal conditions for an additional 22 hours before imaging. […] Importantly, the GSH level obtained in DEM non-treated cells after 24 hours was essentially the same as the value measured at time zero (P=0.63), indicating excellent reproducibility of live imaging based GSH quantification.
PANC-1 cells were incubated with DEM (50 μM) for 2 hours for stimulation of cysteine uptake. After replacing with fresh medium, cells were cultured at normal conditions for another 22 hours. A separate dish of PANC-1 cells were incubated with DEM (50 μM) as an inhibitor for 24 hours. […] GSH concentrations were calculated based on the calibration curve. FACS was performed from harvested cells after treatment, fluorescent intensities were recorded with 405 nm laser/420-460 nm filter (pacific blue channel), and 488 nm laser/515-545 nm filter (FITC channel). […]

[3] = Log D in octanol-PBS (pH 7.4) biphasic system; assay type: physicochemical; details: pH 7.4, read-out: Log D, estimated value based on HPLC result
Excerpt: To further understand TQ Green distribution between hydrophobic and hydrophilic environments, Applicants measured the Log D values of TQ Green and TQ Green-GSH using an octanol-PBS (pH 7.4) biphasic system (Table 2). […] In addition, Applicants discovered that the absorbance maximum of TQ Green shifts from 480 nm to 455 nm when changing the solvents from PBS to octanol. Applicants hypothesize that if TQ Green is distributed in lipid membranes, the absorbance maximum and fluorescence intensity will change. […] Consistent with the Log D measurements, this experiment also supports the hypothesis that TQ Green accumulates in lipid membranes. Considering the high quantum yield of TQ Green in hydrophobic solvents, lipid enrichment of TQ Green seemingly complicates intracellular GSH quantification. […] However, the Kd′ values may be different under calibration conditions and inside cells, which may introduce a systemic error.

[4] = UV-Vis absorption, fluorescence and quantum yield; assay type: physicochemical; details: for Quantum Yield (PBS): λex = 479 nm (TQ Green), 406 nm (TQ Green-GSH)
Excerpt: TQ Green absorbs at 479 nm and fluoresces at 590 nm (λex=488 nm, FIG. 3). The extinction coefficients of TQ Green and TQ Green-GSH at their maximum absorption wavelengths are (2.3±0.2)×10^4 M^−1·cm^−1 (a, =479 nm, Table 2) and (1.6±0.2)×10^4 M^−1·cm^−1 (λmax=407 nm, Table 1), respectively. Upon reacting with GSH, the Abs and Fl peaks shift hypsochromically to 406 and 463 nm (λex=405 nm), respectively. The Abs of TQ Green and TQ Green-GSH (the adduct between TQ Green and GSH) are close to 488 and 405 nm, respectively, which are two commonly used laser wavelengths for confocal microscopes. […]
NMR spectra were recorded on a Varian NMR (^1H at 400 MHz) spectrometer. Chemical shifts (δ) were given in ppm with reference to solvent signals [^1H NMR: CDCl3 (7.26), CD3OD (3.31)]. UV-Vis measurements were performed with 2×10 mm quartz cuvette in Cary 60 UV-is Spectrometer. Fluorescence measurements were performed with the same quartz cuvette in Cary Eclipse Fluorescence Spectrophotometer with an excitation slit of 5 nm, an emission slit of 10 nm and PMT at 650 V. Flash chromatography was performed on a Teledyne ISCO CombiFlashRf200. Olympus FV1000 laser scanning confocal microscope system was used for cell imaging. ESI mass spectrometry was measured on a BrukerMS microTOF ESI, at the Shared Equipment Authority at Rice University. Flow cytometry was performed on BD LSR II Flow Cytometer at BCM core facilities.
As summarized in Table 5, quantum yields of synthesized GSH probes and a GSH adduct with Rhodamine 123 as the standard were analyzed. Quantum yields were determined using a comparative method described previously. The bromine atom on the phenyl ring potentially enhances the push-pull effect of the coumarin-based fluorophore, thus increases the quantum yield.

[5] = methanol; cited from earlier work
[6] = 10 mM solution, capped tube, 10 hour time period, HPLC 254 nm
Protocol: A GSH solution (10 mM) was placed in a capped Eppendorf tube. Samples of solution were taken out for HPLC measurement every two hours. […] The percentage was calculated from the HPLC peak area monitored at 254 nm.

[7] = Reaction kinetics and reversibility of probe with GSH (UV-Vis); details: 10 mM GSH in PBS, room temperature; TQ Green 16 μM, probe 3a 10 μM
Protocol: The reaction between TQ Green and GSH is reversible.
The second-order rate constant between TQ Green and GSH is 0.150±0.001M^−1·s^−1. There were no appreciable Abs changes observed after 20 minutes. Following a pause for another 80 minutes to ensure that the equilibrium between TQ Green and GSH was fully established, Applicants added two equivalents of an irreversible Michael acceptor (5,6-dihydro-2H-pyran-2-one) to deplete all the GSH in solution (FIG. 4A).
GSH in PBS was added to a solution of TQ Green in PBS buffer (10 mM, pH 7.4) containing 1% DMSO. The final concentrations of GSH and TQ Green were 10 mM and 16 μM, respectively. The solutions were then monitored continuously with UV-Vis spectrometer (FIGS. 21A-D).

[8] = Equilibrium (dissociation constant) of probe and GSH reaction, UV-Vis/fluorescence; assay type: binding; details: reaction with various concentration of GSH in water/PBS pH 7.4; based on UV-Vis; read-out: Kd′ observed (apparent) dissociation constant
Protocol: Applicants also determined Keq between TQ Green and GSH and the relationship of the ratiometric change as a function of GSH concentration. Kd′ is the apparent dissociation constant for the reaction between TQ Green and GSH. The following equation can be derived:
Plotting (R−Rmin)/(Rmax−R) as a function of GSH concentration afforded a superb linear relationship with r^2=0.999 (FIGS. 6-7).
TQ Green was dissolved in PBS buffer (10 mM, pH 7.4) containing 1% DMSO with concentration at 32 μM. GSH was dissolved in the same PBS buffer with concentration from 0-80 mM. Above solutions were mixed at 1:1 ratio. All solutions were protected with nitrogen and stored in glove box to prevent any oxygen entering the solution. Samples of all solutions were taken out at 1, 18, 72, and 144 hours after mixing. UV-Vis and fluorescence were measured for all solutions.
as §1

cells = assay: Confocal imaging of probe interacting with cells (cell penetration); assay type: cell-based
Protocol: FIG. 10 provides confocal images at 488 nm channel of TQ Green (acid form, FIG. 10A), and TQ Green-AM (ester form, FIG. 10B) interacting with cells.
All cell lines used in this study were purchased from American Type Culture Collection (ATCC) and grown in DMEM (Gibco, 11965) media supplemented with 10% FBS and 1% 1003 Pen Strep (Gibco). Cells were cultured under a controlled atmosphere (37° C., 5% CO2). Glass dishes were used for cell culture due to confocal scanning requirements. Cells were treated with TQ Green-AM (20 nM-1 μM with 0.0025-1% DMSO in PBS) for 30 minutes, followed by two washing steps with tryptan blue and PBS prior to imaging. Fluorescent images were acquired with 405 nm laser/430-470 nm filter and 488 nm laser/575-620 nm filter. All the microscope settings were kept consistent in each experiment.

[9] = Hydrolysis of TQ Green-AM in PBS and diluted HeLa cell lysate (HPLC UV-vis/MS); assay type: in vitro ADME; details: 40 μM, 37° C.
Protocol: In order to allow TQ Green to efficiently penetrate into cells for GSH measurements, Applicants converted the carboxylic acid group to an acetoxymethyl (AM) ester (FIG. 10). Once inside cells, the AM ester will be readily hydrolyzed by esterases to regenerate TQ Green. To verify this, Applicants incubated TQ Green-AM (FIG. 11, 40 μM) in PBS for 2 hours and in a 500 times diluted HeLa cell lysate for 10 hours at 37° C. (Note: the dilution factor for the cell lysate is calculated based on the fact that ˜400,000 of HeLa cells, which have a total volume of ˜2 μL, were lysed in 1 mL of lysis buffer, resulting in 500 times dilution of cellular components, Table 3). A mixture of TQ Green and TQ Green-AM standard samples and the reaction mixtures after incubation in PBS and in cell lysate were separated using high performance liquid chromatography (HPLC) with a tandem of UV-vis and mass spectrometer (MS) detectors.
TQ Green-AM (40 μM) was incubated in PBS for 2 hours and in a 500 times diluted HeLa cell lysate for 10 hours at 37° C. The reaction products were analyzed by HPLC with a tandem of UV-vis and MS detectors. Analytical standards TQ Green and TQ Green-AM (red trace C) were used to determine the retention time of the corresponding compounds. […] Under the elution conditions used, TQ Green and TQ Green-GSH cannot be separated. However, their identities were confirmed by MS. […]

SMILES: FC(F)(F)c1ccc(S)cc1 [p-trifluorobenzenethiol]
pKa [2]: 5.5

SMILES: CCOC(=O)/C=C\C(=O)OCC [DEM, diethyl maleate]
Increase in GSH levels (PANC-1 cells; 50 μM for 2 hours, then 22 hours normal conditions (stimulation)): 28%
Decrease in GSH levels (PANC-1 cells; 50 μM for 24 hours (inhibition)): 27%

SMILES: CCN(CC)c1ccc2cc(C(CC(=O)c3ccc(C(=O)O)cc3Br)SCC(NC(=O)CCC(N)C(=O)O)C(=O)NCC(=O)O)c(=O)oc2c1 (stereo not shown) [TQ Green-GSH]
logD [3]: < -1
Abs Max Wavelength ([4]; PBS pH 7.4): 406 nm
Fl Emission Max Wavelength ([4]; PBS pH 7.4, λex = 488 nm (TQ Green), λex = 405 nm (TQ Green-GSH)): 463 nm
Quantum Yield (PBS) [4]: 0.0059±0.0003
Quantum Yield (PBS) ([4]; listed as drawing 20): 0.0059 ± 0.0003
Solubility in methanol (Solubility; methanol): ^aTQ Green-GSH is not soluble in methanol
Solubility in octanol (Solubility): not soluble

SMILES: COC(=O)c1ccccc1-c1c2ccc(=N)cc-2oc2cc(N)ccc12.Cl [Rhodamine 123]
Quantum Yield, used as standard [5]: 0.94*

SMILES: N[C@@H](CCC(=O)N[C@@H](CS)C(=O)NCC(=O)O)C(=O)O [GSH, glutathione]
Solubility in octanol (Solubility): not soluble
GSH oxidized in air [6]: About 20%

SMILES: CCN(CC)c1ccc2cc(/C=C/C(=O)c3ccc(C(=O)OCOC(C)=O)cc3Br)c(=O)oc2c1 [TQ Green-AM]
Cell penetration (confocal, 488 nm channel) (cells): able to penetrate through cell the membrane
Hydrolysis in diluted cell lysate ([9]; 500 times diluted HeLa cell lysate, 10 hours): completely converted to a mixture of TQ Green and TQ Green-GSH adduct; also recorded: completely hydrolyzed
Hydrolysis in PBS ([9]; PBS, 2 hours): resistant to hydrolysis; also recorded: did not show appreciable hydrolysis

Now from value to compound, other results behind:

solubility (Solubility): < 10 µM
SMILES: CCN(CC)c1ccc2cc(/C=C(\C)C(=O)c3ccccc3)c(=O)oc2c1 [Compound 3c]
Michael addition between thiol and probe [1]: significantly blocks the Michael addition

Kd ([1]; β-mercaptoethanol in DMSO, read-out: Kd′ observed dissociation constant): ~2000 µM
solubility (Solubility): < 10 µM
SMILES: CCN(CC)c1ccc2cc(/C=C/C(=O)c3ccccc3O)c(=O)oc2c1 [Compound 3d]

Kd [8]: 1500 µM
Quantum Yield (Methanol) ([4]; methanol, Rhodamine 123 as standard): 0.062 ± 0.002
solubility (Solubility): > 500 µM
SMILES: CCN(CC)c1ccc2cc(/C=C/C(=O)c3ccc(C(=O)O)cc3)c(=O)oc2c1 [Compound 3a]
Time to reach 95% of conversion [7]: ~6 min

solubility (Solubility): < 10 µM
SMILES: CCN(CC)c1ccc2cc(/C=C/C(=O)c3ccccc3)c(=O)oc2c1 [Compound 3b]
